The values that follow come from ChEMBL document CHEMBL1201862, “PubChem BioAssay data set” (2004).

The structures appear in SMILES notation.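 Test compounds were applied to cells in 96-well plates for 48 hours at 5 doses. GI50 is the concentration that inhibits growth by half.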 The source made the active and inactive calls. No stated cut-off is given here; in the data, active = GI50 up to about 1.1 µM and inactive = higher. A value given as a limit tells only on which side of the number the result lay.

What all share (test): NCI-60 cell line screen, 48 h
Assay [1] relates to 786-0.
Assay [2] deals with BT-549.
Assay [3] relates to CCRF-CEM.
For assay [4], the system named is COLO 205.
Assay [5] has as its system EKVX.
The subject of assay [6] is HCT-116.
Assay [7] has as its system HCT-15.
In assay [8] the test system is HOP-92.
The subject of assay [9] is HT-29.
In assay [10] the test system is IGROV-1.
Assay [11] relates to M14.
The test system of assay [12] is MDA-MB-231.
Assay [13] has as its system MDA-MB-435.
In assay [14] the test system is MOLT-4.
For assay [15], the system named is OVCAR-4.
The test system of assay [16] is PC-3.
Assay [17] deals with SK-MEL-5.
Assay [18] deals with SK-OV-3.
For assay [19], the system named is CAKI-1.
Assay [20] relates to HCC 2998.

Take `Cc1cn(CCC(N)C(=O)O)c(=O)[nH]c1=O` (configuration not stated): the GI50 in [1], in [2], in assay [3], in assay [4], in [5] and in [6] was > 100 µM (inactive) in each case. Moreover, the GI50 in [7] is more than 100 µM; in assay [8], > 100 µM (inactive); in [9], > 100 µM (inactive); in assay [10], > 100 µM (inactive); in [11], > 100 µM (inactive); in [12], > 100 µM (inactive). Further, the GI50 in assay [13], in assay [14], in [15], in assay [16], in assay [17] and in assay [18] was > 100 µM (inactive) throughout.

Regarding `Nc1nc(-c2ccccc2)cc(-c2ccc(F)cc2)c1-c1ccc(Cl)cc1`, the GI50 was 88.3 µM (inactive) in assay [1]; > 100 µM (inactive) in assay [2]; > 100 µM (inactive) in [19]; 33.2 µM (inactive) in assay [3]; > 100 µM (inactive) in [4]; > 100 µM (inactive) in assay [5]. For the same compound, the GI50 in assay [20] was > 100 µM (inactive); in assay [6], > 100 µM (inactive); in [7] it was more than 100 µM; in assay [9], 13.2 µM (inactive); in assay [10] it was > 100 µM (inactive); in assay [11] it was > 100 µM (inactive). In addition, the GI50 was > 100 µM (inactive) in assay [12]; > 100 µM (inactive) in assay [13]; 5.57 µM (inactive) in [14]; 88.9 µM (inactive) in [15]; > 100 µM (inactive) in assay [16]; > 100 µM (inactive) in [17]. The GI50 in assay [18] was > 100 µM (inactive).

Take `Nc1ccc2nc3n(c2c1)C(c1c(F)cccc1F)SC3` (configuration not stated): the GI50 is > 100 µM (inactive) in assay [1]; > 100 µM (inactive) in [2]; > 100 µM (inactive) in assay [19]; 68.2 µM (inactive) in [3]; > 100 µM (inactive) in assay [4]; > 100 µM (inactive) in [5]. In addition, the GI50 in [20] is > 100 µM (inactive); in assay [6], > 100 µM (inactive); in assay [7], more than 100 µM; in assay [9], > 100 µM (inactive); in assay [10] it was > 100 µM (inactive); in assay [11], > 100 µM (inactive). Besides, the GI50 was > 100 µM (inactive) in [12]; > 100 µM (inactive) in assay [13]; 38.1 µM (inactive) in assay [14]; > 100 µM (inactive) in assay [15]; > 100 µM (inactive) in assay [16]; 41 µM (inactive) in assay [17]. Besides, the GI50 in [18] was > 100 µM (inactive).

On to `COC(=O)[C@]12CC3C=CC1N(C3)C(CBr)c1c2n(S(=O)(=O)c2ccccc2)c2ccccc12` (some centres not stated), for which the GI50 in assay [1] is 43 µM (inactive); in [2], > 100 µM (inactive); in assay [19] it was 74.6 µM (inactive); in assay [3], 47.6 µM (inactive); in [4], > 100 µM (inactive); in assay [5], 80 µM (inactive). Moreover, the GI50 in assay [20] was > 100 µM (inactive); in assay [6], 47.9 µM (inactive); in assay [7] it was 72.8 µM; in [9], 45.3 µM (inactive); in assay [10], 72.9 µM (inactive); in assay [11] it was > 100 µM (inactive). For the same compound, the GI50 in assay [12] was 57.1 µM (inactive); in assay [13], 76.2 µM (inactive); in assay [15], 38.5 µM (inactive); in [16] it was 42.8 µM (inactive); in assay [17] it was > 100 µM (inactive); in assay [18] it was > 100 µM (inactive).

Regarding `Cn1c(=O)c2c(ncn2CCSS(=O)(=O)O)n(C)c1=O`, the GI50 in [1] is > 100 µM (inactive); in assay [2], > 100 µM (inactive); in [19], > 100 µM (inactive); in assay [4], > 100 µM (inactive); in [5], 72.6 µM (inactive); in assay [6], > 100 µM (inactive). Besides, the GI50 in assay [7] was more than 100 µM; in assay [8], > 100 µM (inactive); in assay [9], 99.5 µM (inactive); in assay [10] it was > 100 µM (inactive); in assay [11], 72.3 µM (inactive); in assay [12] it was 45.9 µM (inactive). For the same compound, the GI50 in assay [13], in assay [15], in assay [16], in assay [17] and in assay [18] was > 100 µM (inactive) in each case.

On to `CCCCCCCCCCCC(=O)OCC(O)CO` (configuration not stated) [GLYCEROL MONOLAURATE], for which the GI50 was > 100 µM (inactive) in assay [1]; 36.4 µM (inactive) in [2]; > 100 µM (inactive) in assay [19]; 42.7 µM (inactive) in assay [3]; > 100 µM (inactive) in assay [4]; > 100 µM (inactive) in assay [5]. Further, the GI50 in [6] was > 100 µM (inactive); in [7] it was more than 100 µM; in assay [8], > 100 µM (inactive); in assay [9], 31.2 µM (inactive); in assay [11] it was 69.7 µM (inactive); in assay [12], > 100 µM (inactive). The GI50 in assay [13] was 61.4 µM (inactive); in assay [14] it was 37.1 µM (inactive); in [15], > 100 µM (inactive); in [16], > 100 µM (inactive); in assay [17] it was 59 µM (inactive); in assay [18], > 100 µM (inactive).

Turning to `Cc1nn(-c2ccccc2)c(C)c1/C=N/NC(=O)c1sc(=S)n(-c2ccccc2)c1N`, the GI50 was 3.78 µM (inactive) in assay [1]; 9.71 µM (inactive) in [2]; 1.56 µM (inactive) in [19]; 5.16 µM (inactive) in assay [3]; 1.42 µM (inactive) in assay [4]; 3.39 µM (inactive) in assay [5]. For the same compound, the GI50 was 4.61 µM (inactive) in assay [20]; 4.5 µM (inactive) in assay [6]; 4.89 µM in assay [7]; 2.69 µM (inactive) in assay [9]; 0.221 µM (active) in [10]; 4.92 µM (inactive) in [11]. Besides, the GI50 was 2.18 µM (inactive) in assay [12]; 4.47 µM (inactive) in assay [13]; 5.58 µM (inactive) in assay [14]; 2.69 µM (inactive) in assay [15]; 4.03 µM (inactive) in [16]; 4.06 µM (inactive) in assay [17]. Also, in assay [18], the GI50 was 1.45 µM (inactive).

With `NNC1=Nc2ccc(Cl)cc2C(=S)N2CSCC12` (configuration not stated), the GI50 in [1], in assay [2], in assay [19], in assay [3], in assay [4] and in assay [5] was > 100 µM (inactive) in each case. The GI50 in [20] was > 100 µM (inactive); in assay [6] it was > 100 µM (inactive); in assay [7] it was more than 100 µM; in [9] it was > 100 µM (inactive); in assay [10], > 100 µM (inactive); in assay [11] it was > 100 µM (inactive). Besides, the GI50 in assay [12], in [13], in assay [14], in assay [15], in assay [16] and in assay [17] was > 100 µM (inactive) throughout. For the same compound, the GI50 in assay [18] was > 100 µM (inactive).

On to `C[n+]1c(/C=C/c2ccc(O)c3ncccc23)[se]c2ccccc21`, for which the GI50 was 2.99 µM (inactive) in assay [1]; 6.53 µM (inactive) in assay [2]; 5.01 µM (inactive) in assay [19]; 0.92 µM (active) in assay [3]; 5.58 µM (inactive) in [4]; 4.25 µM (inactive) in assay [5]. Moreover, the GI50 in [6] was 2.58 µM (inactive); in assay [7] it was 0.631 µM; in assay [8], 4.22 µM (inactive); in assay [9], 4.11 µM (inactive); in assay [10] it was 3 µM (inactive); in [11], 4.67 µM (inactive). Also, the GI50 was 0.406 µM (active) in [12]; 6.34 µM (inactive) in assay [13]; 1.94 µM (inactive) in [14]; 4.2 µM (inactive) in [15]; 2.92 µM (inactive) in [16]; 7.76 µM (inactive) in [17]. In addition, in assay [18], the GI50 is 5.96 µM (inactive).

Consider `O=C1CCCn2c(nc3ccccc32)N1`, for which the GI50 in [1], in assay [2], in [19], in assay [3], in assay [4] and in assay [5] was > 100 µM (inactive) in each case. Further, the GI50 in assay [6] is > 100 µM (inactive); in assay [7] it was more than 100 µM; in assay [8] it was > 100 µM (inactive); in assay [9], > 100 µM (inactive); in [10] it was > 100 µM (inactive); in assay [11], > 100 µM (inactive). The GI50 in assay [12], in assay [13], in assay [14], in assay [15], in assay [16] and in assay [17] was > 100 µM (inactive) throughout. In [18], the GI50 was > 100 µM (inactive).

Consider `CS(=O)(=O)c1ccc(C(=O)O[C@@H]2C(=O)N3CC[C@H]4OC(O)[C@@H]2[C@H]43)cc1` (some centres not stated), for which the GI50 in [1] was 60.7 µM (inactive); in [2], > 100 µM (inactive); in [19], > 100 µM (inactive); in assay [4], > 100 µM (inactive); in [5] it was > 100 µM (inactive); in assay [20], > 100 µM (inactive). Also, the GI50 is 64.7 µM (inactive) in [6]; more than 100 µM in assay [7]; > 100 µM (inactive) in assay [9]; > 100 µM (inactive) in assay [11]; > 100 µM (inactive) in assay [12]; > 100 µM (inactive) in assay [13]. The GI50 in assay [14], in assay [15], in [16], in [17] and in [18] was > 100 µM (inactive) each time.
